US11419913B2, “Pharmaceutical compositions for inhibiting inflammatory cytokines” (S.I.S. SHULOV INNOVATIVE SCIENCE LTD., priority 2018, dated 2022)
“Also recorded” adds a separate entry of the source. Marks after values point to notes of the source that are not given here. Where a SMILES comes first, the peptide text is derived from it. [ ]: non-standard residue; d: D form. The star is where a group is joined. pGlu = O=C1CC[C@@H](C(=O)O)N1; Octanoyl = CCCCCCCC(=O)*

How the values were obtained:
[1] = Oxazolone-induced atopic dermatitis mouse model, tolerability and bodyweights; conditions: for tolerability: 50 mg/kg topical to atopic dermatitis induced mice; for Bodyweights in comparison to the excipient: day 8 to day 28
Protocol: Method: Animals were sensitized by topical administration of oxazolone 2% in ethanol on the back at Day 0 after shaving and depilation of the animals (sensitization phase). Then a challenge was performed one week later by topical administration of oxazolone 1% in ethanol on the back and on right ear every 2 days at 10 occasions namely for total 3 weeks. The tested compounds were applied during the challenge phase every 2 days via the topical route as ready to use cream formulations. The surface of application was the same as for challenge (back+ear). 100 μL were deposited on the back and the back was smoothly massaged. Then, remaining formulation on finger glove was deposited on the internal face of the ear. Every other day, back skin and ears thickness were measured using caliper; and the following clinical scores were recorded from back skin: erythema and scaling. Animals were also weighed every other day (approximate bodyweights of a mouse at startup is about 20 g).
The formulations used for topical administration of the tested compound were: ZEP3 1% cream having pH 7.1 and comprising: Propylene glycol, Polysorbate 80, Edetate Disodium, Silicon dioxide (syloid), Methylparaben, White petrolatum, Isopropyl Myristate, Cetyl Alcohol and Glyceryl Monostearate. ZEP3Na 1% cream having pH 8.0 and comprising: Propylene glycol, Polysorbate 80, Edetate Disodium, Silicon dioxide (syloid), Methylparaben, White petrolatum, Isopropyl Myristate, Cetyl Alcohol and Glyceryl Monostearate. ZEP4 1% cream having pH 4.5 and comprising: Propylene glycol, Glycerin, Polysorbate 80, EDTA Disodium, Xanthan Gum, Silicon dioxide (syloid), Methylparaben, White petrolatum, Isopropyl Myristate, Cetyl Alcohol, Stearyl Alcohol, and Glyceryl Monostearate (kolliwax).

[2] = system: TNF alpha; assay: TNF alpha secretion in LPS treated human keratinocytes (ELISA); assay type: cell-based; conditions: for TNF alpha levels / production in LPS treated human keratinocytes (in words): compared with cells stimulated with LPS alone; for TNFα: ZEP3Na without DMSO; for Fold Change: refers to TNF-α concentration in sample #2; for % Inhibition: vs corresponding control group without peptide
Protocol: Methods: SCCE020 cells (EpiGRO™ Human Epidermal Keratinocytes) were grown in complete growth medium (EpiGRO™ Human Keratinocytes Complete Medium; Millipore Cat. #SCMK001) for 4 passages. At passage 5, cells were seeded (3*10^5 cells/well) in triplicates in a volume of 1 ml complete growth medium per well. Additional 3 control wells contained only medium without cells. Upon adherence, cell medium was replaced by basal medium containing L-Glutamine without supplements (starvation medium) and cells were starved overnight. The next day, 24 hours after seeding, the cells were treated with ZEP3 or ZEP3Na or appropriate diluent (PBS or DMSO). After 4 hours of incubation, LPS (from E. Coli 055: B5; Sigma Cat. #L6529-1MG) was added to the wells in final concentration of 20 or 30 μg/ml.
Cells were incubated for 24 hours in tissue culture incubator. After collecting cell supernatants from all wells, cells from treatment groups: 1, 2, 3, 8, 9, 10, 13, 14 (without DMSO groups) were pelleted and stored at −80° C. for further analyses. The cells were collected from as following: upon supernatants collection, the wells were rinsed with trypsin, then incubated with trypsin until they detached from the plate surface, centrifuged, washed with PBS and stored as a cell pellet. TNF-α concentration in the supernatants was measured by ELISA (Quantikine HS ELISA; R&D Systems Cat. #HSTA00D), in 5 replicates.
TNF alpha concentration in the samples was calculated according to the standard curve trend line equation: =0.063x+0.1718. Percent inhibition of TNF alpha production was calculated in each treatment group in comparison to the corresponding control group (same conditions, without peptide).

[3] = system: oxazolone-induced atopic dermatitis (AD) mouse models; assay: Oxazolone-induced atopic dermatitis mouse model, clinical lesions; assay type: in vivo; conditions: for Scaling: period of reduction: 1% cream topical, 50 mg/kg, scaling score of back skin; for Right ear thickness, significant difference in comparison to control: days 20, 22 and 28; for Erythema scoring: days with a significant difference / total score: days with significant difference: vs control group
Protocol: The effect of topical administration of ZEP3 (SEQ ID NO: 1), and its sodium salt form (ZEP3Na), and ZEP4 (SEQ ID NO: 2) was evaluated in oxazolone-induced atopic dermatitis (AD) mouse models. This model is widely used and well described in literature (Avci et al. 2013 Expert Opin Drug Discov. 8, 331-355; Petersen T. K. 2006, Basic Clin. Pharmacol. Toxicol. 99, 104-115) as an accepted animal model for evaluating drugs for AD therapy in humans.

[4] = system: TNF alpha; assay: Expression of TNF alpha by B6 macrophage cells treated with LPS and palmitic acid; assay type: cell-based, mouse
Protocol: Macrophages originating from C57BL/6 mice were cultured at a density of 200,000 cells/mL in a 24-well plate (500 μl wells) and incubated at 37° C. and 5% CO2 overnight. Following incubation, culture media in certain experimental groups were replaced with fresh media containing 100 ng/mL LPS, followed by three hours incubation. Then, the media (LPS-containing or LPS-free) in certain experimental groups were replaced with fresh media containing ZEP4 at concentrations ranging from 3.125 to 100 μg/ml, followed by one-hour incubation. Next, palmitic acid (PA, 200 μM) was added to the appropriate wells and the plates were incubated for additional 24 hours, then the amount of TNF alpha in each well was measured. Reduction in TNF alpha production in the treatment groups was calculated relative to cells treated with LPS and PA (CLP200).
Macrophages originating from C57BL/6 mice were cultured at a density of 200,000 cells/mL in a 24-well plate (500 μl wells) and incubated at 37° C. and 5% CO2 overnight. Following incubation, media were replaced with fresh media containing 100 ng/mL LPS, followed by three hours incubation. The LPS-containing media in the treatment groups were then replaced with fresh media containing ZEP4 at 50 μg/ml, followed by one-hour incubation. Then, aliquots of palmitic acid (100, 200 or 400 μM) were added to appropriate wells. The plates were incubated for additional 24 hour and the amount of TNF alpha in each well was measured. Reduction in TNF alpha production in the treatment groups was calculated relative to cells treated with LPS and PA, according to the PA concentration.
Macrophage cells originating from C57BL/6 mice were cultured at a density of 200,000 cells/mL in a 24-well plate (500 μl wells) and incubated at 37° C. and 5% CO2 overnight. Following incubation, media in certain experimental groups were replaced with fresh media containing 100 ng/mL LPS, followed by three hours incubation. Then, the media (LPS-containing or LPS-free) in certain experimental groups were replaced with fresh media containing ZEP3 at a concentration ranging from 3.125 to 100 μg/ml, followed by one-hour incubation. Next, palmitic acid (200 μM) aliquots were added to the appropriate wells and the plates were incubated for additional 24 hours, then the amount of TNF alpha in each well was measured. Reduction in TNF alpha production in the treatment groups was calculated relative to cells treated with LPS and PA.

[5] = peptide 3.125 μg/ml, LPS 100 ng/mL, palmitic acid 200 μM, 24 hours
[6] = peptide 3.125 μg/ml, LPS 100 ng/mL, palmitic acid 200 μM, relative to cells treated with LPS and PA
[7] = peptide 6.25 μg/ml, LPS 100 ng/mL, palmitic acid 200 μM, 24 hours
[8] = peptide 6.25 μg/ml, LPS 100 ng/mL, palmitic acid 200 μM, relative to cells treated with LPS and PA
[9] = peptide 12.5 μg/ml, LPS 100 ng/mL, palmitic acid 200 μM, 24 hours
[10] = peptide 12.5 μg/ml, LPS 100 ng/mL, palmitic acid 200 μM, relative to cells treated with LPS and PA
[11] = peptide 25 μg/ml, LPS 100 ng/mL, palmitic acid 200 μM, 24 hours
[12] = peptide 25 μg/ml, LPS 100 ng/mL, palmitic acid 200 μM, relative to cells treated with LPS and PA
[13] = peptide 50 μg/ml, LPS 100 ng/mL, palmitic acid 200 μM, 24 hours
[14] = peptide 50 μg/ml, LPS 100 ng/mL, palmitic acid 200 μM, relative to cells treated with LPS and PA
[15] = peptide 100 μg/ml, LPS 100 ng/mL, palmitic acid 200 μM, 24 hours
[16] = peptide 100 μg/ml, LPS 100 ng/mL, palmitic acid 200 μM, relative to cells treated with LPS and PA
[17] = peptide control: peptide 100 μg/ml, no LPS, no palmitic acid
[18] = peptide 0.2 mg/ml, LPS 20 μg/ml
[19] = peptide 0.2 mg/ml, LPS 30 μg/ml
[20] = peptide 0.4 mg/ml, LPS 20 μg/ml

Row | SMILES | tolerability [1] | Bodyweights in comparison to the excipient [1] | TNF alpha levels / production in LPS treated human keratinocytes (in words) [2] | Scaling: period of reduction [3] | Right ear thickness, significant difference in comparison to control [3] [%] | Erythema scoring: days with a significant difference [3] | total score: days with significant difference [3] | TNF alpha [4, 5] [pg/mL] | % reduction of TNF alpha [4, 6] [%] | TNF alpha [4, 7] [pg/mL] | % reduction of TNF alpha [4, 8] [%] | TNF alpha [4, 9] [pg/mL] | % reduction of TNF alpha [4, 10] [%] | TNF alpha [4, 11] [pg/mL] | % reduction of TNF alpha [4, 12] [%] | TNF alpha [4, 13] [pg/mL] | % reduction of TNF alpha [4, 14] [%] | TNF alpha [4, 15] [pg/mL] | % reduction of TNF alpha [4, 16] [%] | TNF alpha [4, 17] [pg/mL] | further results
1 | C[C@@H](O)[C@H](NC(=O)[C@H](Cc1c[nH]c2ccccc12)NC(=O)[C@H](CC(N)=O)NC(=O)[C@@H]1CCC(=O)N1)C(=O)O [ZEP4, pGlu-Asn-Trp-Thr-OH] (HELM PEPTIDE1{[Glp].N.W.T}$$$$V2.0) | well tolerated | behaved normally | effectively diminished | from days 14 to 24 | −12.3 to −16.0 | days 12, 16, 22 and 24 | days 12-20, 24 and 28 | 97.79 | 70.6 | 89.83 | 73.0 | 93.12 | 72.0 | 115.58 | 65.2 | 76.23 | 77.0 | 211.68 | 36.3 | 0 | Significant difference on back thickness vs. control group 1 ([3]; day 14): −13.5%; TNF alpha ([4]; Table 2: ZEP4 50 μg/ml, LPS 100 ng/ml, palmitic acid 100 μM): 133.93 pg/mL; % reduction of TNF alpha ([4]; Table 2: ZEP4 50 μg/ml, LPS 100 ng/ml, palmitic acid 100 μM, relative to LPS and PA 100 μM): 67.8**** %; TNF alpha ([4]; Table 2: ZEP4 50 μg/ml, LPS 100 ng/ml, palmitic acid 200 μM): 167.52 pg/mL; % reduction of TNF alpha ([4]; Table 2: ZEP4 50 μg/ml, LPS 100 ng/ml, palmitic acid 200 μM, relative to LPS and PA 200 μM): 63.7**** %; TNF alpha ([4]; Table 2: ZEP4 50 μg/ml, LPS 100 ng/ml, palmitic acid 400 μM): 252.177 pg/mL; % reduction of TNF alpha ([4]; Table 2: ZEP4 50 μg/ml, LPS 100 ng/ml, palmitic acid 400 μM, relative to LPS and PA 400 μM): 57.5**** %
2 | CCCCCCCC(=O)NCCCC[C@H](NC(=O)[C@H](Cc1c[nH]c2ccccc12)NC(=O)[C@H](CC(N)=O)NC(=O)[C@@H]1CCC(=O)N1)C(=O)O [ZEP3, pGlu-Asn-Trp-Lys(Octanoyl)-OH] ([pGlu]NWK(Octanoyl)-OH) | well tolerated | behaved normally | effectively diminished; also recorded: dose dependent inhibition | reduced from days 18 to 24 | −10.1 to −18.0 | days 22 and 24 | days 20, 24 and 28 | 41.98 | 82.9 | 75.52 | 69.2 | 74.83 | 69.5 | 61.57 | 74.9 | 106.75 | 56.4 | 176.22 | 28.1 | 10.44 | TNFα ([2]; peptide 0.02 mg/ml, LPS 20 μg/ml, ZEP3 in 0.025% DMSO): 9.6 pg/mL; Fold Change ([2]; peptide 0.02 mg/ml, LPS 20 μg/ml): 3.4; TNFα ([2]; peptide 0.2 mg/ml, LPS 20 μg/ml, ZEP3 in 0.05% DMSO): 6.0 pg/mL; Fold Change [2, 18]: 2.1; % Inhibition [2, 18]: 32%; TNFα ([2]; peptide 0.2 mg/ml, LPS 30 μg/ml, ZEP3 in 0.10% DMSO): 17.3 pg/mL; Fold Change [2, 19]: 6.1; % Inhibition [2, 19]: 20%; TNFα ([2]; peptide 0.4 mg/ml, LPS 20 μg/ml, ZEP3 in 0.10% DMSO): 4.6 pg/mL; Fold Change [2, 20]: 1.6; % Inhibition [2, 20]: 48%; Significant difference on back thickness vs. control group 1 ([3]; day 20): −25.5%; Significant difference on back thickness vs. control group 1 ([3]; day 24): −16.6%; ED50 (reduction of TNF alpha expression) ([4]; macrophage cells treated with LPS 100 ng/mL and palmitic acid 200 μM, estimated): 51.94 µg/mL
